Literature values, collected in patent US8771972B2 (Saladax Biomedical Inc., priority 2011, dated 2014).

Conditions: background statement

Row | SMILES | activity of metabolite
1 | C[N+]1([O-])CCN(C2=Nc3cc(Cl)ccc3Nc3ccccc32)CC1 [N-Oxide derivative, Clozapine-N-oxide] | inactive
2 | Clc1ccc2c(c1)N=C(N1CCNCC1)c1ccccc1N2 [N-desmethyl metabolite, N-desmethylclozapine] | limited activity
